Assay [1] is described as follows: Selectivity index was determined as ratio of IC50 against rat DHFR to that of IC50 against Toxoplasma gondii DHFR.
Assay [2] can be described thus: Selectivity index was determined as ratio of IC50 against rat DHFR to that of IC50 against Mycobacterium avium DHFR.
Assay [3] is described as follows: Selectivity index was determined as ratio of IC50 against rat DHFR to that of IC50 against Pneumocystis carinii DHFR.
In assay [4] the target is T1, Dihydrofolate reductase (Mycobacterium avium, UniProt O30463).
T1 sequence (O30463 whole entry): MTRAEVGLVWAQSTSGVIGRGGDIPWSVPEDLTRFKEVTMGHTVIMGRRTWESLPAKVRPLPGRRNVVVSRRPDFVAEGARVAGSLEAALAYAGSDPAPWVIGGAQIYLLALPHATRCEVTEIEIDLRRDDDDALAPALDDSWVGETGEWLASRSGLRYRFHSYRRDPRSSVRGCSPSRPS
Description: Inhibitory concentration against Mycobacterium avium dihydrofolate reductase

The target in assay [5] is T2, Dihydrofolate reductase (Rattus norvegicus, UniProt Q920D2).
T2 sequence (Q920D2 whole entry): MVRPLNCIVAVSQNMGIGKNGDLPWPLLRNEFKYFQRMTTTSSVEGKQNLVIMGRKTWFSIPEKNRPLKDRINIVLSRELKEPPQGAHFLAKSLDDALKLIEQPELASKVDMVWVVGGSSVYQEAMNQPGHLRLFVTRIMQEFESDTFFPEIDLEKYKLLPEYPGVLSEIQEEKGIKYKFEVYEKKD
Description: Inhibitory activity against rat dihydrofolate reductase

Assay [6] addresses T3, Dihydrofolate reductase (Pneumocystis carinii, UniProt P16184).
T3 sequence (P16184 whole entry): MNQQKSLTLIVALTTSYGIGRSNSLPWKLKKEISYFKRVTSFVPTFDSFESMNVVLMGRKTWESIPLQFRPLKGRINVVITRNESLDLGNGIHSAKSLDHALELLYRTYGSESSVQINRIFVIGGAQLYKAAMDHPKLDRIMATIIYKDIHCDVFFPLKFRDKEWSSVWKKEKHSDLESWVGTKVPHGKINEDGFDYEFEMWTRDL
Description: Inhibitory concentration against Pneumocystis carinii dihydrofolate reductase

The target of assay [7] is T4, Bifunctional dihydrofolate reductase-thymidylate synthase (Toxoplasma gondii, UniProt Q07422).
T4 sequence (Q07422 whole entry): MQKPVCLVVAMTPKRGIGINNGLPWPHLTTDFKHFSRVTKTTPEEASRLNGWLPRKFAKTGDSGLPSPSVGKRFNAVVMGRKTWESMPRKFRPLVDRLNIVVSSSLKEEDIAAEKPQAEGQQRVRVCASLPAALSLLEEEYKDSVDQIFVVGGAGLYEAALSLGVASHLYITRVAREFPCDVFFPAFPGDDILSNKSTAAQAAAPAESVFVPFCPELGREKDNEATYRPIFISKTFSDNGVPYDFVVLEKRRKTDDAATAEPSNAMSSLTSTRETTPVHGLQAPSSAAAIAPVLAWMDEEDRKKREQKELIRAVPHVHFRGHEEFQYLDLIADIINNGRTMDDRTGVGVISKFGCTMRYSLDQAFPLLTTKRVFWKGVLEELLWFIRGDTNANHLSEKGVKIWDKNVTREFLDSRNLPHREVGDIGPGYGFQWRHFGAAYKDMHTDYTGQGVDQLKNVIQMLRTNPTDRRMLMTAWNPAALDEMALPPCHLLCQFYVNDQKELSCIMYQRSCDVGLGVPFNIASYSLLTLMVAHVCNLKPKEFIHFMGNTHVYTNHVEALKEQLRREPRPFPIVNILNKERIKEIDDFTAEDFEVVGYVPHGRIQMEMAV
Description: Inhibitory concentration against Toxoplasma gondii dihydrofolate reductase

We go through three molecules from ChEMBL document CHEMBL1147507, “Preliminary in vitro studies on two potent, water-soluble trimethoprim analogues with exceptional species selectivity against dihydrofolate reductase from Pneumocystis carinii and Mycobacterium avium” (Bioorg Med Chem Lett, 2004).

Molecules are shown by their SMILES.

In the case of `COc1ccc(C#Cc2ccc(C(=O)O)cc2)cc1Cc1cnc(N)nc1N`, the Ratio in assay [1] was determined as 24; in assay [2] it was 2200; in assay [3], 6.3.
In the case of `COc1cc(Cc2cnc(N)nc2N)cc(C#Cc2ccc(C(=O)O)cc2)c1OC`, the Ratio in assay [1] stood at 210; in assay [2] it was 11000; in assay [3] it was 73. Also, the IC50 against Dihydrofolate reductase [4] came out at 0.0082 µM; on Dihydrofolate reductase [5] it was 88 µM; on Dihydrofolate reductase [6], 1.2 µM; in assay [7] it was 0.42 µM.
Molecule `COc1cc(Cc2cnc(N)nc2N)cc(C#CCCCC(=O)O)c1OC` had an IC50 against Dihydrofolate reductase [5] of 5 µM.
